From US11066446B2, “Cyclic peptide, affinity chromatography support, labeled antibody, antibody drug conjugate, and pharmaceutical preparation” (FUJIFILM Corporation, priority 2016, dated 2021)
Starred links: 1 amine or outer side, 2 acyl side, 3 side chain; linkers in the order of their positions; H or OH if unused. Positions of bridges follow the written chain, without caps; N, C: chain ends. Non-standard residues stand in square brackets, D forms with d. Primed or numbered codes have the meaning given here. No end group written: not given here. Bpg″ = L-bishomopropargylglycine residue, C#CCCC[C@H](N[*:1])C(=O)[*:2]; Lys(N3) = [N-]=[N+]=NCCCC[C@H](N)C(=O)O; Orn(N3) = [N-]=[N+]=NCCC[C@H](N)C(=O)O; Aha = [N-]=[N+]=NCC[C@H](N)C(=O)O; Bpg = L-bishomopropargylglycine; Hpra = C#CCC[C@H](N)C(=O)O; Pra = C#CC[C@H](N)C(=O)O

What was measured:
[1] = Chemical resistance: rate of change in antibody binding amount of immobilized support before and after alkali treatment; assay type: physicochemical; conditions: for Chemical resistance (rate of change in the binding amount): peptide-immobilized HiTrap support, human IgG binding amount at 10% leak, before and after 0.05 M aqueous NaOH for 6 hours at 25° C.; for chemical resistance (in words): summary wording of the chemical resistance evaluation
Protocol: 1 mL of HiTrap NHS-activated HP Columns (coupling columns for ligand immobilization, manufactured by GE Healthcare) (HITRAP is a registered trademark) was reacted with 1 mL of 10 mg/mL cyclic peptide solution, which was prepared by dissolving the cyclic peptide 1 in an immobilization buffer (10% DMSO in 200 mM NaHCO3, 500 mM NaCl, pH 8.3), for 1 hour at 25° C. The reaction product was blocked by an aqueous ethanolamine solution and washed, thereby obtaining a cyclic peptide 1-immobilized support. Hereinafter, the obtained immobilized support will be referred to as “immobilized support A”.
The immobilized support A prepared in (4) described above was connected to a chromatography system AKTA avant 25 (manufactured by GE Healthcare) (AKTAAVANT is a registered trademark), and the antibody binding amount was measured. The columns were equilibrated using an equilibration solution (20 mM phosphoric acid buffer, 150 mM NaCl, pH 7.4), and then 20 mL of a 5 mg/mL human IgG antibody standard buffer solution (20 mM phosphoric acid buffer, 150 mM NaCl, pH 7.4) was injected thereinto at a flow rate of 0.21 mL/min. Thereafter, the columns were washed with 5 mL of a postloading wash solution (20 mM phosphoric acid buffer, 150 mM NaCl, pH 7.4) caused to flow at the same flow rate and then washed with 5 mL of a pre-elution wash solution (20 mM phosphoric acid buffer, 1 M NaCl, pH 7.4) at the same flow rate. Then, 5 mL of an elution solution (100 mM citric acid buffer, pH 3.2) was caused to flow at the same flow rate. Subsequently, 5 mL of a cleaning in place (CIP) solution (0.1 M sodium hydroxide) was caused to flow at the same flow rate, and then 5 mL of a reequilibration solution (20 mM phosphoric acid buffer, 150 mM NaCl, pH 7.4) was caused to flow at the same flow rate. At this time, by using an immunoglobulin G (IgG) elution peak obtained by monitoring absorbance at 280 nm, the amount of antibodies binding to the support until 10% of the antibody stock solution leaked out of the support was measured as the antibody binding amount. Then, the immobilized support A was filled with a 0.05 M aqueous NaOH solution for 6 hours at 25° C. and left to stand, the antibody binding amount of the support was then measured in the same manner, and a rate of change in the binding amount was calculated from the antibody binding amount before and after the alkali treatment.

[2] = test system: human immunoglobulin G (IgG) antibodies; assay: Relative binding activity to human IgG antibodies by surface plasmon resonance on immobilized sensor chip; conditions: for Relative binding activity: SPR (Biacore 3000, CM5 chip), 3,000 nM human IgG for 10 minutes at 25° C., relative to the cyclic peptide of Comparative Example 1 regarded as 1
Protocol: A commercially available CM5 (carboxymethyl dextran introduction-type, manufactured by GE Healthcare) sensor chip was set in Biacore 3000 (Biacore is a registered trademark) as a surface plasmon resonance device manufactured by GE Healthcare, a 4-(2-hydroxyethyl)-1-piperazineethanesulfonic acid (HEPES) buffer solution (20 mM HEPES-HCl, 150 mM NaCl, pH 7.4) for surface plasmon resonance (SPR) was stabilized at a flow rate of 10 μL/min, and 70 μL of an aqueous mixed solution of 0.2 M 1-(3-Dimethylaminopropyl)-3-ethylcarbodiimide (EDC) and […] of N-Hydroxysuccinimide (NHS) were injected thereinto. Thereafter, 100 μL of a sample solution of the cyclic peptide 1, which was diluted with a HEPES buffer solution at 0.2 g/L and treated with a polytetrafluoroethylene (PTFE) filter (manufactured by Advantec MFS, Inc.) having a diameter of 0.20 μm, was supplied to the sensor chip. Then, a blocking treatment was then performed on the sample solution by using an aqueous ethanolamine solution, and the sensor chip was washed with an aqueous sodium hydroxide solution, thereby performing immobilization. Likewise, 70 μL of an aqueous mixed solution of 0.2 M EDC and 0.04 M NHS was added to the same sensor chip without immobilizing the sample in another flow channel of the sensor chip, and then the blocking treatment and the washing treatment were performed. Hereinafter, the obtained immobilized sensor chip will be referred to as “immobilized sensor chip A”.
At 25° C., 3,000 nM of human immunoglobulin G (IgG) antibodies were added for 10 minutes to the immobilized sensor chip A prepared in (2) described above. Then, the antibody binding amount in the flow channel in which the cyclic peptide was immobilized immediately after the addition and in the flow channel in which the cyclic peptide was not immobilized was measured. From the difference in the antibody binding amount between the flow channel in which the cyclic peptide was immobilized and the flow channel in which the cyclic peptide was not immobilized and the amount of the immobilized cyclic peptide, the activity of the cyclic peptide was calculated. Furthermore, by regarding the activity of a cyclic peptide 5 in Comparative Example 1 as 1, the relative binding activity with respect to the human IgG antibodies was calculated.

chemical resistance (in words) ([1]; listed as Comparative Example 2)	antibody binding properties (in words) ([2]; summary wording of the relative binding activity evaluation, listed as Comparative Example 2)	Substance	Chemical resistance (rate of change in the binding amount) [1]	Relative binding activity [2]	Relative binding activity ([2]; listed as Example 14)	chemical resistance (in words) [1]
		Asp-[Abu(N3)]-Ala-Tyr-His-Arg-Gly-Glu-Leu-Val-Trp-[Pra]-Thr-Lys-Lys (D[Aha]AYHRGELVW[Pra]TKK; triazole 2-12) [Cyclic peptide 6, [Abu(N3)] and [Pra] cross-linked through a triazole bond]	B (The rate of change in the binding amount was higher than 80% and equal to or lower than 90%)	B (The relative binding activity was higher than 400% and equal to or lower than 800% of the binding activity of the cyclic peptide 5)		
		Asp-[Abu(N3)]-Ala-Tyr-His-Leu-Gly-Glu-Leu-Val-Trp-[Bpg]-Thr-Lys-Lys (D[Aha]AYHLGELVW[Bpg]TKK; triazole 2-12) [Cyclic peptide 13, [Abu(N3)] and [Bpg] cross-linked through a triazole bond]	A (The rate of change in the binding amount was higher than 90%)	B (The relative binding activity was higher than 400% and equal to or lower than 800% of the binding activity of the cyclic peptide 5)		
		Asp-[Abu(N3)]-Ala-Tyr-His-Leu-Gly-Glu-Leu-Val-Trp-[Hpg]-Thr-Lys-Lys (D[Aha]AYHLGELVW[Hpra]TKK; triazole 2-12) [Cyclic peptide 11, [Abu(N3)] and [Hpg] cross-linked through a triazole bond]	A (The rate of change in the binding amount was higher than 90%)	A (The relative binding activity was higher than 800% of the binding activity of the cyclic peptide 5)		
		Asp-[Abu(N3)]-Ala-Tyr-His-Leu-Gly-Glu-Leu-Val-Trp-[Pra]-Thr-Lys-Lys (D[Aha]AYHLGELVW[Pra]TKK; triazole 2-12) [Cyclic peptide 7, [Abu(N3)] and [Pra] cross-linked through a triazole bond]	A (The rate of change in the binding amount was higher than 90%)	B (The relative binding activity was higher than 400% and equal to or lower than 800% of the binding activity of the cyclic peptide 5)		
		Asp-[Bpg]-Ala-Tyr-His-Leu-Gly-Glu-Leu-Val-Trp-[Lys(N3)]-Thr-Lys-Lys (D[Bpg]AYHLGELVW[Lys(N3)]TKK; triazole 2-12) [Cyclic peptide 3, [Bpg] and [Lys(N3)] cross-linked through a triazole bond]	A (The rate of change in the binding amount was higher than 90%)	A (The relative binding activity was higher than 800% of the binding activity of the cyclic peptide 5)		
		Asp-[Bpg]-Ala-Tyr-His-Leu-Gly-Glu-Leu-Val-Trp-[Nva(N3)]-Thr-Lys-Lys (D[Bpg″]AYHLGELVW[Orn(N3)]TKK; triazole 2-12; also: Xaa2 derived from gamma-azido-L-homoalanine) [Cyclic peptide 14, [Bpg] and [Nva(N3)] cross-linked through a triazole bond]	A (The rate of change in the binding amount was higher than 90%)	B (The relative binding activity was higher than 400% and equal to or lower than 800% of the binding activity of the cyclic peptide 5)	C or a higher grade	
		Asp-[Cys]-Ala-Tyr-His-Arg-Gly-Glu-Leu-Val-Trp-[Cys]-Thr-Lys-Lys (DCAYHRGELVWCTKK; disulfide 2-12) [Cyclic peptide 19, two [Cys]'s cross-linked through a disulfide bond; comparative, reference compound]	E (The rate of change in the binding amount was equal to or lower than 50%)	A (The relative binding activity was higher than 800% of the binding activity of the cyclic peptide 5)		poor
poor and sufficient	excellent and poor	Asp-[Glu]-Ala-Tyr-His-Leu-Gly-Glu-Leu-Val-Trp-[Lys]-Thr-Lys-Lys [Cyclic peptide 18, reference compound]	B (The rate of change in the binding amount was higher than 80% and equal to or lower than 90%)	E (The relative binding activity was equal to or lower than 100% of the binding activity of the cyclic peptide 5)		
		Asp-[Hpg]-Ala-Tyr-His-Leu-Gly-Glu-Leu-Val-Trp-[Abu(N3)]-Thr-Lys-Lys (D[Hpra]AYHLGELVW[Aha]TKK; triazole 2-12) [Cyclic peptide 12, [Hpg] and [Abu(N3)] cross-linked through a triazole bond]	A (The rate of change in the binding amount was higher than 90%)	A (The relative binding activity was higher than 800% of the binding activity of the cyclic peptide 5)		
		Asp-[Hpg]-Ala-Tyr-His-Leu-Gly-Glu-Leu-Val-Trp-[Nva(N3)]-Thr-Lys-Lys (D[Hpra]AYHLGELVW[Orn(N3)]TKK; triazole 2-12) [Cyclic peptide 15, [Hpg] and [Nva(N3)] cross-linked through a triazole bond]	A (The rate of change in the binding amount was higher than 90%)	B (The relative binding activity was higher than 400% and equal to or lower than 800% of the binding activity of the cyclic peptide 5)		
		Asp-[Lys(N3)]-Ala-Tyr-His-Leu-Gly-Glu-Leu-Val-Trp-[Hpg]-Thr-Lys-Lys (D[Lys(N3)]AYHLGELVW[Hpra]TKK; triazole 2-12) [Cyclic peptide 8, [Lys(N3)] and [Hpg] cross-linked through a triazole bond]	A (The rate of change in the binding amount was higher than 90%)	B (The relative binding activity was higher than 400% and equal to or lower than 800% of the binding activity of the cyclic peptide 5)		
		Asp-[Lys(N3)]-Ala-Tyr-His-Leu-Gly-Glu-Leu-Val-Trp-[Pra]-Thr-Lys-Lys (D[Lys(N3)]AYHLGELVW[Pra]TKK; triazole 2-12) [Cyclic peptide 10, [Lys(N3)] and [Pra] cross-linked through a triazole bond]	A (The rate of change in the binding amount was higher than 90%)	C (The relative binding activity was higher than 200% and equal to or lower than 400% of the binding activity of the cyclic peptide 5)		
